Target: Cdk2(WT) (Homo sapiens, UniProt P24941)
Assay: TdCD melting temperature of acrylamide-modified Cdk2
Assay type: binding
Set-up: made in house; host or cells: E. coli Tuner(DE3)
Conditions: compound-modified Cdk2(WT), n=3
Procedure: GSTBCdk2" and" GSTBcyclin" A2:! Harvested! cells! were! resuspended! in! 50! mM! HEPES! buffer! (pH7.5)! containing! 150! mM! NaCl,!
10!mM!MgCl2,!2!mM!dithiothreitol!(DTT),!0.5!mg!mLR1!lysozyme,!and!0.01%!Triton!XR100!at!4!˚C!and!incubated!for!30!minutes.!
After! sonication! and! centrifugation! (40! min,! 16000! g),! the! supernatant! was! incubated! for! 1! h! with! glutathioneRSepharose!
beads,! washed! with! lysis! buffer! and! the! desired! protein! eluted! with! 10! mM! GSH! (100! mM! Tris,! pH! 8).! After! incubation! the! deR
sired! protein! was! cleaved! from! the! GST! tag! with! PreScission! protease! (100:1)! at! 4 °C! for! 4! hours,! the! cleaved! GST! tag! was!
removed! with! glutathioneRSepharose! beads.! Cdk2! was! concentrated! and! then! loaded! onto! a! Superdex! 75! (16/60)! column,!
eluting! with! 100! mM! phosphate! buffer! containing! 50! mM! DTT.! Purified! Cdk2! was! concentrated! to! 10! mg! mLR1!and! stored! at!–
80! ˚C.! Cyclin! A2! was! purified! by! glutathioneRSepharose! affinity! as! described! above! with! the! following! amendments:! 100! mM!
MgCl2!was! added! after! GST! cleavage! to! minimise! protein! aggregation! and! gel! filtration! was! performed! with! 50! mM! HEPES!
buffer! (pH! 7.5)! containing! 150! mM! NaCl,! 100! mM! MgCl2,! 2! mM! DTT.! ! […]
labelling! reached! completion! (as! monitored! by! fluorescence! quench! assay! and/or! intact! protein! mass! spectrometry).! […]

| Tm ± s.e.m | Compound |
| --- | --- |
| 48.95 ± 0.25 ˚C | C=CC(=O)N1CCN(C(=O)OC(C)(C)C)c2ccccc21 [Acrylamide 1] |
| 50.56 ± 0.24 ˚C | C=CC(=O)N1CCN(C(=O)OC)c2ccccc21 [Acrylamide 2] |

Reference: publication PMC5947712, “High‐Throughput Kinetic Analysis for Target‐Directed Covalent Ligand Discovery” (Angewandte Chemie (International Ed. in English), 2018)
